Experimental data: US10882856B2 (BeiGene, Ltd., priority 2017, dated 2021)

How the values were obtained:
TDO = target: T1, TDO (Homo sapiens, UniProt P48775); test: TDO enzymatic assay; type: biochemical; conditions: read-out: Enzyme IC50 TDO
T1 construct: His tag (C); made in house; host or cells: E. coli
Procedure, shortened: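 Recombinant C-terminally His-tagged TDO purified from E. coli (100 nM) was tested with 0.5 mM L-tryptophan (Km concentration). Otherwise the IDO1 enzymatic set-up was used: ascorbic acid, methylene blue, catalase, and potassium phosphate pH 7.5 with BSA, incubated 1.5 hours. N'-formylkynurenine absorbance was read continuously at 321 nm, and activity was taken as the slope. IC50 was calculated from remaining enzyme activity across increasing compound concentrations.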

IDO1 [1] = target: T2, IDO1 (Homo sapiens, UniProt P14902); test: Hela cell-based IDO1 assay; conditions: Hela cells
T2 sequence (P14902 whole entry): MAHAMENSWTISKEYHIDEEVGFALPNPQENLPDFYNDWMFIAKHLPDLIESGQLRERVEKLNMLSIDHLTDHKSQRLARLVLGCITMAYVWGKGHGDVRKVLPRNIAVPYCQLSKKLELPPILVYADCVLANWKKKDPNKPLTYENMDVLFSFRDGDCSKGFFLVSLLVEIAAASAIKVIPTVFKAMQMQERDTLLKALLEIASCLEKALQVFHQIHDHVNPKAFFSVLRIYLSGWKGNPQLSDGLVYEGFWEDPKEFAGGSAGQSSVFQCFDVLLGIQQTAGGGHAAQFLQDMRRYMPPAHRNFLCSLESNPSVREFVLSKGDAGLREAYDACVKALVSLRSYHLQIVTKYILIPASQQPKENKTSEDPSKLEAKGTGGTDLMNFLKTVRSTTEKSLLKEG
Procedure, shortened: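 HeLa cells were seeded at 8000 per well in 96-well plates in phenol red-free DMEM with 10% FBS. After 4 hours, DMSO-diluted compound dilutions were added with IFN-γ (final 100 ng/mL) and 0.4 mM L-Trp, and cells were kept 48 hours at 37 °C, 5% CO2. Supernatant was deproteinised with trichloroacetic acid, and kynurenine was measured at 480 nm after adding 2% 4-(dimethylamino)benzaldehyde. Potency came from four-parameter logistic fits in XLfit.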

[2] = target: T3, cellular TDO2 in HEK293-TDO2 cells (Homo sapiens, UniProt P48775); test: 293-TDO2 cell-based assay (Kyn colorimetric); conditions: 48 hours of incubation
T3 construct: expressed in transfected cells; host or cells: HEK293 (ATCC), stably transfected
T3 sequence (P48775 whole entry): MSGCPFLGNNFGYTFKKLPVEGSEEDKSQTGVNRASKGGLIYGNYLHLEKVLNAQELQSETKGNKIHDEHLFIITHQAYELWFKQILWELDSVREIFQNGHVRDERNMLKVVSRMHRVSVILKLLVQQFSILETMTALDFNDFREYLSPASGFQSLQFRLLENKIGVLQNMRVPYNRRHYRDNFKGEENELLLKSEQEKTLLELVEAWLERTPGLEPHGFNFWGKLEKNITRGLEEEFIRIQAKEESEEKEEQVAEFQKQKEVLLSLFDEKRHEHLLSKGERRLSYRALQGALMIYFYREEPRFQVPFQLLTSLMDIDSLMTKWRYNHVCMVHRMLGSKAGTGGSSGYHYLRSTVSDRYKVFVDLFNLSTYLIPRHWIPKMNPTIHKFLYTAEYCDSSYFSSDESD
Procedure, shortened: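 HEK293 cells stably expressing TDO2 (10000/well, phenol red-free DMEM, 10% FBS) were dosed 4 h after plating and incubated 48 h at 37° C. Supernatant Kyn was measured after TCA precipitation by 4-(dimethylamino)benzaldehyde colour at 480 nm. IC50 came from four-parameter logistic fits.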

IDO1 [3] = target: T2, IDO1; test: IDO1 enzymatic assay; type: biochemical; set-up: His tag (N); made in house; host or cells: E. coli; conditions: read-out: Enzyme IC50 IDO1
Procedure, shortened: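 Compound was incubated with 50 nM His-tagged IDO1 from E. coli, 1.3 mM D-tryptophan, 5 mM L-ascorbic acid, methylene blue and 0.4 mg/mL catalase in 50 mM potassium phosphate pH 7.5, 0.1% BSA, at 24 °C for 1.5 hours. Activity was the slope of N'-formylkynurenine formation read continuously at 321 nm for 1 hour. IC50 was obtained from remaining activity versus compound concentration.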

T1 sequence (P48775 whole entry): as above

SMILES	IC50 (TDO)	EC50 (IDO1 [1])	EC50 [2]	IC50 (IDO1 [3])
OCCn1cc(-c2ccc(N3CCC(C(O)c4c(C5CC5)ccn5cncc45)CC3)cc2)cn1 (centres unmarked) [Example C153, 2-(4-(4-(4-((7-cyclopropylimidazo[1,5-a]pyridin-8-yl)(hydroxy)methyl)piperidin-1-yl)phenyl)-1H-pyrazol-1-yl)ethan-1-ol]	6700 nM	1050 nM	> 10000 nM	47 nM
N#Cc1ccc([C@H]2CC[C@H](C(O)c3c(C4CC4)ccn4cncc34)CC2)cc1 (single isomer, unassigned) [Example C106a]	5200 nM	141 nM	> 10000 nM	20 nM
CC(=O)c1ccc([C@H]2CC[C@H]([C@H](O)c3c(C4CC4)ccn4cncc34)CC2)cc1 [Example C125, 1-(4-((1 S,4r)-4-((S)-(7-cyclopropylimidazo[1,5-a]pyridin-8-yl)(hydroxy)methyl)cyclohexyl)phenyl)ethan-1-one]	6100 nM	915 nM	> 10000 nM	41 nM
Cc1ccc([C@H]2CC[C@H]([C@H](O)c3c(C4CC4)ccn4cncc34)CC2)cc1 (single isomer, unassigned) [Example C110a]	21000 nM	283 nM	> 10000 nM	35 nM
O[C@H](c1c(C2CC2)ccn2cncc12)[C@H]1CC[C@H](c2ccc(C(F)(F)F)nc2)CC1 (single isomer, unassigned) [Example C120a]	7400 nM	1100 nM	> 10000 nM	39 nM
O[C@H](c1c(C2CC2)ccn2cncc12)[C@H]1CC[C@H](c2ccc(F)cc2)CC1 (single isomer, unassigned) [Example C107a]	6500 nM	109 nM	> 10000 nM	31 nM
O[C@H](c1c(C2CC2)ccn2cncc12)[C@H]1CC[C@H](c2ccc(Cl)cc2)CC1 (single isomer, unassigned) [Example C102a]	16000 nM	471 nM	> 10000 nM	36 nM
O[C@H](c1c(C2CC2)ccn2cncc12)[C@H]1CC[C@H](c2ccc(OC(F)(F)F)cc2)CC1 (single isomer, unassigned) [Example C105a]	9100 nM	1140 nM	> 10000 nM	48 nM
O[C@H](c1c(C2CC2)ccn2cncc12)[C@H]1CC[C@H](c2ccc(OC3CCCC3)cc2)CC1 (single isomer, unassigned) [Example C118a]	6200 nM	147 nM	> 10000 nM	63 nM
COc1cccc([C@H]2CC[C@H]([C@H](O)c3c(C4CC4)ccn4cncc34)CC2)c1 (single isomer, unassigned) [Example C114a]	8300 nM	180 nM	> 10000 nM	27 nM
Cc1cccc([C@H]2CC[C@H]([C@H](O)c3c(C4CC4)ccn4cncc34)CC2)c1 (single isomer, unassigned) [Example C111a]	8000 nM	131 nM	> 10000 nM	28 nM
O[C@H](c1c(C2CC2)ccn2cncc12)[C@H]1CC[C@H](c2cccc(F)c2)CC1 (single isomer, unassigned) [Example C109a]	8500 nM	49 nM	> 10000 nM	43 nM
O[C@H](c1c(C2CC2)ccn2cncc12)[C@H]1CC[C@H](c2cccc3ccccc32)CC1 (single isomer, unassigned) [Example C121a]	3600 nM	59 nM	> 10000 nM	39 nM
Cc1ccccc1[C@H]1CC[C@H]([C@H](O)c2c(C3CC3)ccn3cncc23)CC1 (single isomer, unassigned) [Example C112a]	5100 nM	183 nM	> 10000 nM	40 nM
O[C@H](c1c(C2CC2)ccn2cncc12)[C@H]1CC[C@H](c2ccc(C(F)(F)F)cc2)CC1 (single isomer, unassigned) [Example C115a]	11000 nM	2400 nM	> 10000 nM	67 nM
Oc1ccc([C@H]2CC[C@H](C(O)c3c(C4CC4)ccn4cncc34)CC2)cc1 (single isomer, unassigned) [Example C104a]	2500 nM	50 nM	> 10000 nM	18 nM

Second part, the compound after the results:

IC50 (TDO)	EC50 (IDO1 [1])	EC50 [2]	IC50 (IDO1 [3])	SMILES
11000 nM	631 nM	> 10000 nM	44 nM	O[C@H](c1c(C2CC2)ccc2cncn12)[C@H]1CC[C@H](c2ccc(OC(F)(F)F)cc2)CC1 (single isomer, unassigned) [Example D105a]
16000 nM	254 nM	> 10000 nM	21 nM	O[C@H](c1c(C2CC2)ccc2cncn12)[C@H]1CC[C@H](c2ccc3ccccc3c2)CC1 (single isomer, unassigned) [Example D136a]
7500 nM	23 nM	> 10000 nM	18 nM	O[C@H](c1c(C2CC2)ccc2cncn12)[C@H]1CC[C@H](c2ccc(F)cc2)CC1 (single isomer, unassigned) [Example D104a]
9200 nM	35 nM	> 10000 nM	14 nM	O[C@H](c1c(C2CC2)ccc2cncn12)[C@H]1CC[C@H](c2ccccc2)CC1 (single isomer, unassigned) [Example D101a]
1400 nM	> 10000 nM	> 10000 nM	3500 nM	O[C@@H](c1cc(Cl)cc2cncn12)[C@H]1CC[C@H](c2ccc3ccccc3c2)CC1 (single isomer, unassigned) [Example E104b]
1700 nM	572 nM	> 10000 nM	17 nM	O[C@@H](c1c(C2CC2)ccc2cncn12)[C@H]1CC[C@@H](c2ccc(OC3CCOCC3)cc2)CC1 [Example D114a, (R)-(6-cyclopropylimidazo[1,5-a]pyridin-5-yl)((1 s,4S)-4-(4-((tetrahydro-2H-pyran-4-yl)oxy)phenyl)cyclohexyl)methanol]
10000 nM	83 nM	> 10000 nM	34 nM	CC(C)c1ccc2cncn2c1[C@@H](O)[C@H]1CC[C@H](c2ccc(Cl)cc2)CC1 (single isomer, unassigned) [Example D115a]
11000 nM	38 nM	> 10000 nM	20 nM	O[C@H](c1c(C2CC2)ccc2cncn12)[C@H]1CC[C@H](c2ccnc3ccccc32)CC1 (single isomer, unassigned) [Example D140a]
5100 nM	344 nM	> 10000 nM	34 nM	O[C@H](c1c(C2CC2)ccc2cncn12)[C@H]1CC[C@H](c2ccc(-c3ccccc3)cc2)CC1 (single isomer, unassigned) [Example D119a]
4000 nM	21 nM	> 10000 nM	11 nM	Oc1ccc([C@H]2CC[C@H](C(O)c3c(C4CC4)ccc4cncn34)CC2)cc1 (single isomer, unassigned) [Example D106a]
6400 nM	186 nM	> 10000 nM	16 nM	N#Cc1ccc([C@H]2CC[C@H]([C@H](O)c3c(C4CC4)ccc4cncn34)CC2)cc1 (single isomer, unassigned) [Example D110a]
1700 nM	2530 nM	> 10000 nM	27 nM	O[C@H](c1cc(Cl)cc2cncn12)[C@H]1CC[C@H](c2ccc(Cl)cc2)CC1 (single isomer, unassigned) [Example E101a]
6700 nM	220 nM	> 10000 nM	21 nM	O[C@H](c1c(C2CC2)ccc2cncn12)[C@H]1CC[C@H](c2ccc3sccc3c2)CC1 (single isomer, unassigned) [Example D133a]
11000 nM	32 nM	> 10000 nM	25 nM	O[C@H](c1c(C2CC2)ccc2cncn12)[C@H]1CC[C@H](c2cccc3ccccc32)CC1 (single isomer, unassigned) [Example D135a]
6100 nM	12 nM	> 10000 nM	15 nM	O[C@H](c1c(C2CC2)ccc2cncn12)[C@H]1CC[C@H](c2cccc3ncccc32)CC1 (single isomer, unassigned) [Example D141a]
6700 nM	370 nM	> 10000 nM	80 nM	O[C@H](c1c(C2CC2)ccc2cncn12)[C@H]1CC[C@H](c2ccc(Oc3ccccc3)cc2)CC1 (single isomer, unassigned) [Example D120a]
